These are literature values, as cited in patent publication US20060083786A1 (Glenmark Pharmaceuticals Limited, priority 2004, published 2006).

The conditions of this data set: in vivo.

Take `O=C(O)COCCN1CCN([C@H](c2ccccc2)c2ccc(Cl)cc2)CC1` [Levocetirizine]: the “side effects on the central nervous system” value was “free from side effects”.
